{"source": "patent US20130263297A1", "about": "“METHODS OF TREATING CANCER” (Cedars-Sinai Medical Center, priority 2010, published 2013)", "system": "RAW 264.7 cells", "test": "In vitro osteoclastogenesis assay (co-culture of RAW 264.7 osteoclast precursor cells with prostate cancer cells, TRAP staining)", "assay_type": "cell-based, mouse", "experimental": "The co-cultures of osteoclast precursor cells (RAW 264.7 cells) and prostate cancer cells were performed in 48-well plate containing 500 μl of α-MEM media supplemented with 10% FBS and were set up in quadruplicates. Osteoclast precursor cells were seeded with prostate cancer cells in an 8:1 ratio (15,000 RAW 264.7 cells and 1,875 prostate cancer cells) per well. Recombinant mouse RANKL (100 ng/ml, provided by Dr. Xu Feng), was added to the assay as the positive control. Additionally, recombinant OPG (1 μg/ml) was added to designated wells to block RANKL-mediated increased osteoclastogenesis. The cells were checked under the microscope daily from day-4 to day-7. Cells were fixed and subjected to tartrate-resistant acid phosphatase (TRAP) staining (Sigma-Aldrich, Inc., St. Louis, Mo.). TRAP^+ multinucleated cells (3 nuclei) in the entire well were counted as mature osteoclasts and the images were taken under light microscopy.", "note": "“Also recorded” adds a separate entry of the source."}
{"substance": "osteoprotegerin [OPG]", "values": [{"measurement": "formation of mature osteoclasts induced by ARCaPE-RANKL and LNCaP-RANKL cells", "setting": "addition of OPG (1 μg/ml) to co-culture with RAW264.7", "value": "blocked; also recorded: decreased by approximately two-fold"}, {"measurement": "osteoclastogenesis induced by Neo-transfected control cells", "setting": "addition of OPG to co-culture with RAW264.7", "value": "very minimal blocking effects"}]}
